# Source: ChEMBL document CHEMBL2203088, “Design, synthesis and molecular simulation studies of dihydrostilbene derivatives as potent tyrosinase inhibitors” (Bioorg Med Chem Lett, 2012)
# Target: T1, Tyrosinase (Agaricus bisporus, UniProt O42713)
# T1 sequence (O42713 whole entry): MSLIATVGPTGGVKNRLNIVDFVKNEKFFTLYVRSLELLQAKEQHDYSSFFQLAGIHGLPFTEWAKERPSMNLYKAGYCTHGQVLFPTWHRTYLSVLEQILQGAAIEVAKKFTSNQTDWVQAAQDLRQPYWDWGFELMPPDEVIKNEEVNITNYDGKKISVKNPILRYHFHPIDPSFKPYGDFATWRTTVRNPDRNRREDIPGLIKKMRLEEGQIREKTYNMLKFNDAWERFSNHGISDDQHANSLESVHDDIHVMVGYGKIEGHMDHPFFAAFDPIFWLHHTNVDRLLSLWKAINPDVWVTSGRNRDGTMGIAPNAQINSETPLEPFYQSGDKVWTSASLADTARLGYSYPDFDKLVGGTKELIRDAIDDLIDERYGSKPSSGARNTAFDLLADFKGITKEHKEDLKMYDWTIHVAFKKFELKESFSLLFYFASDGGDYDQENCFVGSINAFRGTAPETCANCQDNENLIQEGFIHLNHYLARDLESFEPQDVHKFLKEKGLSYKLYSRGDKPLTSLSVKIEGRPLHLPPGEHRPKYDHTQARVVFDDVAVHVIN
# Experiment: Inhibition of mushroom tyrosinase using L-DOPA as substrate after 10 mins
row,SMILES,IC50 [µM]
1,Oc1ccc(CCc2ccc(F)cc2)c(O)c1,49.6
2,Oc1ccc(CCc2ccccc2Cl)c(O)c1,33.8
3,Oc1ccc(CCc2ccccc2)c(O)c1,30.6
4,Oc1ccc(CCc2ccc(O)cc2O)cc1,8.44
5,COc1ccc(CCc2ccc(O)cc2O)cc1,31.6
